Reference: patent US10738070B2, “Mannose-derived antagonists of FimH useful for treating disease” (Fimbrion Therapeutics, Inc., priority 2016, dated 2020)

Target: T1, FimH (Escherichia coli, UniProt Q1R2J4)
T1 construct: endogenous in cells; host or cells: E. coli UTI89 bacteria
Test: Hemagglutination inhibition (HAI) assay with UTI89 bacteria and guinea pig red blood cells
Format: cell-based
Conditions: concentration reducing bacterial agglutination of guinea pig red blood cells by greater than 90%; UTI89 bacteria
Description: “HAI or EC>90” is that concentration of the FimH inhibitor/antagonist which reduces the bacterial agglutination of guinea pig red blood cells by greater than 90%.
HAI Assay The hemagglutination inhibition (HAI) assay was performed with UTI89 bacteria and guinea pig red blood cells, as previously described (S. J. Hultgren, W. R. Schwan, A. J. Schaeffer, J. L. Duncan Infect. Immun. 1986, 54, 613-620). Compounds not listed were not tested.

`CC(=O)Nc1ccccc1Oc1cc(C)c(O[C@H]2O[C@H](CO)[C@@H](O)[C@H](O)[C@@H]2O)cc1[N+](=O)[O-]` [Example 30, N-(2-[4-(α-D-mannopyranosyloxy)-5-methyl-2-nitrophenoxy]phenyl)acetamide] was tested. Which “HAI titer EC>90” value did it give?
The value was 1.5 µM.

How did the “HAI titer EC>90” value turn out when `CC(=O)Nc1cccc(Oc2cc(C)c(O[C@H]3O[C@H](CO)[C@@H](O)[C@H](O)[C@@H]3O)cc2[N+](=O)[O-])c1` [Example 31, N-(3-[4-(α-D-mannopyranosyloxy)-5-methyl-2-nitrophenoxy]phenyl)acetamide] was run?
Its value is 0.5 µM.

`Cc1cc(Oc2ccc(C#N)cc2)c([N+](=O)[O-])cc1O[C@H]1O[C@H](CO)[C@@H](O)[C@H](O)[C@@H]1O` [Example 32, 4-[4-(α-D-mannopyranosyloxy)-5-methyl-2-nitrophenoxy]benzonitrile] was tested. Which “HAI titer EC>90” value did it give?
The value was 0.5 µM.

Which “HAI titer EC>90” value does the source give for `CC(=O)Nc1ccc(Oc2cc(C)c(O[C@H]3O[C@H](CO)[C@@H](O)[C@H](O)[C@@H]3O)cc2[N+](=O)[O-])cc1` [Example 33, N-(4-[4-(α-D-mannopyranosyloxy)-5-methyl-2-nitrophenoxy]phenyl)acetamide] here?
The value was 0.25 µM.

How did the “HAI titer EC>90” value turn out when `Cc1cc(Oc2ccc3ccncc3c2)c([N+](=O)[O-])cc1O[C@H]1O[C@H](CO)[C@@H](O)[C@H](O)[C@@H]1O` [Example 34, 7-[4-(α-D-mannopyranosyloxy)-5-methyl-2-nitrophenoxy]isoquinoline] was run?
Its value is 0.125 µM.

Which “HAI titer EC>90” value does the source give for `Cc1cc(Oc2ccccc2C#N)c([N+](=O)[O-])cc1O[C@H]1O[C@H](CO)[C@@H](O)[C@H](O)[C@@H]1O` [Example 35, 2-[4-(α-D-mannopyranosyloxy)-5-methyl-2-nitrophenoxy]benzonitrile] here?
The value was 1 µM.

How did the “HAI titer EC>90” value turn out when `Cc1cc(Oc2ccc3cccnc3c2)c([N+](=O)[O-])cc1O[C@H]1O[C@H](CO)[C@@H](O)[C@H](O)[C@@H]1O` [Example 36, 7-[4-(α-D-mannopyranosyloxy)-5-methyl-2-nitrophenoxy]quinoline] was run?
The value was 0.5 µM.

With `CS(=O)(=O)c1ccc(-c2ccc(O[C@H]3O[C@H](CO)[C@@H](O)[C@H](O)[C@@H]3O)c(Cl)c2)cc1` [Example 37, 3-chloro-4′-(methylsulfonyl)biphenyl-4-yl α-D-mannopyranoside] as the compound, how does the “HAI titer EC>90” value read?
Its value is 0.15 µM.

How did the “HAI titer EC>90” value turn out when `Cc1cc(-c2ccc3cc[nH]c(=O)c3c2)cc(C)c1OC1OC(CO)C(O)C(O)C1O` [Example 38, 7-[4′-(α-D-mannopyranosyloxy)-3′,5′-dimethylphenyl]-1(2H)-iso-quinolinone] was run?
The value was 0.266 µM.

With `CNC(=O)c1cccc(-c2ccc(O[C@H]3O[C@H](CO)[C@@H](O)[C@H](O)[C@@H]3O)c(C#N)c2)c1` [Example 39, 4′-(α-D-mannopyranosyloxy)-3′-cyano-N-methyl-1,1′biphenyl-3-carboxamide] as the compound, how does the “HAI titer EC>90” value read?
Its value is 0.188 µM.
